Point of comparison: `CC(=O)Nc1nc(OC(C)C)c2nc(Cl)ccc2n1`, melting point 244 °C. Against it:
- O=C(c1cccs1)c1cnn2c(-c3cccc(-c4nnn(CC5CCC5)n4)c3)ccnc12 — lower, 170 °C
- COc1cc(OC)cc(-c2nc(C)nn2-c2ccc(S(N)(=O)=O)cc2)c1 — lower, 207 to 208 °C
- CCC1CC2C3CCc4cc(OC)ccc4C3CCC2(C)C1=O (configuration not stated) — lower, 93 to 94 °C
- O=C(OCc1cc(F)nc(F)c1F)c1ccccc1 — lower, 73 to 76 °C
- NCC=Cc1ccc(NC(=O)c2ccccc2-c2ccc(C(F)(F)F)cc2)cc1 — lower, 190 °C
- COCOc1cc(CCCOc2nn(Cc3ccccc3)cc2CC(=O)O)n(Cc2ccc(Cl)cc2Cl)n1 — lower, 89.5 to 91.5 °C
- Cc1ccc(CON2C(C)(C)CC(O)CC2(C)C)cc1 — lower, 92.5 to 93 °C
- N#Cc1ccc2cc(OCCC(c3ccccc3)(c3ccccc3)c3ccccc3)ccc2c1 — lower, 207 to 208 °C
- CC(=O)N(C#N)Cc1ccccc1 — lower, 42 °C
- CP(C)(=O)C(O)C(=O)O (configuration not stated) — lower, 206 to 208 °C
- CC1(C)C=C(c2ccccn2)c2ccccc2O1 — lower, 80 to 82 °C
- CC1CCC(N(CC2CCC(CN(C(=O)Nc3ccc(N(C)C)cc3)C3CCC(C)CC3)CC2)C(=O)Nc2ccc(N(C)C)cc2)CC1 (configuration not stated) — lower, 150 to 153 °C
- Ic1ccc(C2CCCCO2)cc1-c1cc(C2CCCCO2)ccc1I (configuration not stated) — lower, 112 to 113 °C
- Cc1ccc(NC(=S)NC(NC(=O)c2ccc(C)cc2)C(F)(F)F)cc1 (configuration not stated) — lower, 192 to 193 °C
- CC1(C)CN=C(c2cc3cccc(NS(=O)(=O)c4cccs4)c3[nH]2)S1 — lower, 176 to 177 °C
- CCCNC(=O)C(CC)Cc1ccc2c(c1)c(Cc1ccc(C(=O)NS(=O)(=O)c3ccccc3C)cc1OC)cn2CCC (configuration not stated) — lower, 93 to 105 °C
- Cc1cc2c(cc1O)C(C)(C)CC1(CC(C)(C)c3cc(OCC(N)=O)c(C)cc3O1)O2 (configuration not stated) — lower, 220 to 221 °C
- COc1cn(-c2cccc(C(F)(F)F)c2)nc(C(=O)C=CN(C)C)c1=O — lower, 176 to 178 °C
- CC1OC(=O)C(c2ccccc2)OC1=O (configuration not stated) — lower, 153 to 156 °C
- COc1cc(C)nc(NC(=S)NNC(=O)c2ccccc2)n1 — lower, 193 to 195 °C
- Brc1ccc(C=Cc2csc3ccccc23)s1 — lower, 71.5 to 73 °C
- C=CCn1nc(-c2cc(C(C)(C)C)c(O)c(C(C)(C)C)c2)c2cccnc21 — lower, 120 to 123 °C
- CC(=O)OC12Oc3c(C(C)(C)C)cc(C(C)(C)C)cc3C1(OC(C)=O)C(=O)c1ccccc12 (configuration not stated) — not separable, 242 to 247 °C
- CC(C)[C@H](C[C@@H]1OC(C)(C)N(C(=O)OC(C)(C)C)[C@H]1CC1CCCCC1)C(=O)NCCNc1nc(N)n[nH]1 — lower, 99 to 112 °C
- COCc1cc([N+](=O)[O-])ccc1N1C(=O)c2ccc(Cl)cc2C1=O — lower, 125 to 128 °C
- Cc1cc(F)ccc1-c1nc(OCCCS(C)(=O)=O)nc2c1ccc(=O)n2-c1c(F)cccc1F — lower, 160 to 162 °C
- FC(F)(F)Oc1ccc(Nc2cc(N3CCCC3)cc(-c3ccccc3)n2)cc1 — lower, 141 to 143 °C
- O=c1c2ccc([N+](=O)[O-])cc2nc(C(S)c2ncnc3[nH]cnc23)n1-c1ccccc1Cl (configuration not stated) — lower, 218 °C
- OC1CC(c2ccccc2)C(c2ccccc2)(c2ccc(OCCN3CCOCC3)cc2)O1 (configuration not stated) — lower, 150 to 153 °C
- O=C(CC1CC2CCC1C2)Nc1ccccc1C(c1ccc(O)cc1)c1ccc(O)cc1 (configuration not stated) — lower, 125 to 127 °C
- CCOC(=O)c1sc(-c2ccc(C#N)cc2)nc1CBr — lower, 156 °C
- CCC12CCC(=O)C=C1c1c(cc(O)c(Cl)c1Cl)C2 (configuration not stated) — higher, 260 to 265 °C
- O=C1NCCCc2cc(OCCCN3CCN(Cc4ccc5ccccc5n4)CC3)ccc21 — lower, 161 to 162 °C
- CCOC(=O)c1cn(NC=O)c2cc(-n3cccc3)c(F)cc2c1=O — higher, 254 to 257 °C
- CN1CCN(S(=O)(=O)c2ccc([N+](=O)[O-])cc2[N+](=O)[O-])CC1 — lower, 164 to 165 °C
- Fc1ccc(NC(=S)Nc2ncccc2OCc2c(F)cccc2Cl)cc1 — lower, 146 to 148 °C
- CC(=O)n1c(=NC(F)(F)F)oc2ccccc21 — lower, 140 to 143 °C
- Cc1c(-c2ccc(O)cc2)n(Cc2ccc(/C=C/C(N)=O)cc2)c2ccc(O)cc12 — lower, 161 to 163 °C
- COC(=O)c1ccc(-c2nc(C(N)=O)c3[nH]c(=O)n(-c4ccccc4OC)c3n2)cc1 — higher, 286 to 290 °C
- CCOC(=O)C(C)(C)Oc1ccc(OCc2ccccc2)cc1C=O — lower, 65 °C
- O=C(Nc1nnc(CC2CC2)o1)C(c1ccccc1)c1ccccc1 — lower, 158 to 159 °C
- O=C1OC(=O)c2ncc([N+](=O)[O-])cc21 — lower, 85 to 91 °C
- CCOC(=O)c1ncc2[nH]c3cccc(Oc4ccc(N)cc4)c3c2c1COC — lower, 222 to 224 °C
- Cn1cnc(COc2ccc(-c3cc(-c4c[nH]nc4-c4ccccn4)ccn3)cc2)c1 — lower, 104 °C
- CCOc1nn(-c2c(Cl)cc(C(F)(F)F)cc2Cl)c(N)c1C(=O)c1cc(C)ccc1C — lower, 99 to 101 °C
- CCOC(=O)Cc1ccc(C(=O)c2ccc([N+](=O)[O-])cc2)n1C — lower, 103 to 106 °C
- Cc1cc(C=O)ccc1C(=O)NCc1ccccn1 — lower, 79.5 to 83 °C
- O=C1CCC2(c3c[nH]cn3)Cc3ccccc3C12 (configuration not stated) — lower, 234 to 236 °C
- O=C(CC12CC3CC(CC(C3)C1)C2)N1CCc2sccc2C1 — lower, 121 to 125 °C
- CCOC(=O)CCNC(=O)N1CCn2c(c(C(N)=O)c(Cl)c2-c2ccccc2)C1 — lower, 50 to 60 °C
- CC(C(=O)NO)C(=O)N(c1ccccc1)c1ccccc1 (configuration not stated) — lower, 171 to 172 °C
- Cc1oc(-c2ccccc2)nc1COc1cccc(COc2cncc(CC(=O)O)c2)c1 — lower, 158 to 159 °C
- CN1c2ccccc2S(=O)(=O)c2cc(C=Cc3ccc(-c4ccc(C=Cc5ccc6c(c5)S(=O)(=O)c5ccccc5N6C)cc4)cc3)ccc21 — higher, 360 °C
- CNC(=S)N1CCSC1c1ccccc1OCCN1CC=C(c2cccc(F)c2)CC1 (configuration not stated) — lower, 147 to 148 °C
- CC1(C)CCC(C)(C)c2cc([N+](=O)[O-])ccc21 — lower, 46 to 50 °C
- CCOC(=O)Cc1sc(Sc2nc(C)ccc2C(=O)OCC)nc1C — lower, 95 to 97 °C
- COc1cc(NC(=O)c2ccccc2)c(=O)[nH]c1C — higher, 247 to 248 °C
- O=C1Cn2ncnc2-c2sccc2N1 — lower, 213 to 215 °C
- O=C1SC(Cc2ccc(OCCON=Cc3cnc4ccccc4c3)cc2)C(=O)N1C(c1ccccc1)(c1ccccc1)c1ccccc1 (configuration not stated) — lower, 127 to 130 °C
- O=C1NC2(CCCCC2)Sc2ccccc21 — lower, 193 to 195 °C
- COC(=O)COc1ccc(-c2cccc3sc4ccccc4c23)cc1 — lower, 148 to 150 °C
- CCCOc1ccccc1-c1nccc(=O)[nH]1 — lower, 112 to 113 °C
- CCC(CC)n1nc(C)c2c(Cl)nc(C)nc21 — lower, 33 to 34 °C
- CC1(C)[C@@H]2CC[C@@]1(C)C[C@H]2OC(=O)C1CCC(C(=O)O[C@@H]2C[C@]3(C)CC[C@H]2C3(C)C)CC1 (some centres not stated) — lower, 77 °C
- NC(=S)Nc1ccc(F)cc1-c1ccccc1 — lower, 188 to 190 °C
- CCOC(=O)c1cc(-n2c(=O)c3c(n(C)c2=O)CCC3)ccc1[N+](=O)[O-] — lower, 188 to 190 °C
- Ic1ccc(Cc2ccc(I)cc2)cc1 — lower, 160 to 164 °C
- COC(=O)C(=O)Cc1nc([N+](=O)[O-])cn1C — lower, 186 °C
- C=CC(=O)Nc1ccc2ncnc(Nc3ccc(OCc4ccccc4)cc3)c2c1 — lower, 227 to 229 °C
- Cc1ccc(OC2COc3ccc(OCc4ccc5cc(F)ccc5n4)cc3C2O)cn1 (configuration not stated) — lower, 164 to 165 °C
- COc1ccc(N2CCN(c3c(C)c(C)c4c(c3C)C(O)(CCc3ccccc3)C(C)(C)O4)CC2)cc1 (configuration not stated) — lower, 124 to 126 °C
- Cc1ccc(C2(C=O)C3CC4CC(C3)CC2C4)cc1 (configuration not stated) — lower, 93 to 97 °C
- CCOC(=O)N1CCN(CCCN2C(=O)c3ccccc3C2=O)CC1 — lower, 77 to 84 °C
- Cc1cccc(-c2n[nH]cc2-c2ccc(F)c(-c3c[nH]c(C(O)CO)n3)c2)n1 (configuration not stated) — lower, 125 to 127 °C
- O=C(O)CCCCCc1cccnc1 — lower, 100 to 105 °C
- COc1ccc(-c2nc(Sc3ccccc3)n(Cc3ccccc3)c2-c2ccc(OC)cc2)cc1 — lower, 113 to 115 °C
- CN(c1cccc2cc(C3=NCC(CCNc4nnc[nH]4)S3)[nH]c12)S(=O)(=O)c1cccs1 (configuration not stated) — lower, 195 °C
- COc1c(NC(=O)c2cc3cccc(NC(=O)c4ccc(N)nc4)c3s2)cc(C(C)(C)C)cc1NS(C)(=O)=O — lower, 234 to 235 °C
- CC(C)Cn1c(CNC(=O)OC(C)(C)C)c(-c2cccs2)c2cc(C#N)ccc2c1=O — lower, 189 to 190 °C
- Cc1ccc(C(=O)Cl)cc1OCc1ccccc1 — lower, 49 to 51 °C
- CCOC(=O)C(C)Oc1ccc(Oc2nc3ccc(Cl)cc3s2)cc1 (configuration not stated) — lower, 49 °C
- CC(C)Oc1ccc2c(O)c(C(=O)O)nc(Cl)c2c1 — lower, 139 to 141 °C
- O=C1C(=Cc2cccc(Cl)c2)SC(c2cccc(Cl)c2)N1CCCN1CCCCC1 (configuration not stated) — lower, 137 to 139 °C
- C#CCCCn1ncc2c(OCC)c(C(=O)OCC)cnc21 — lower, 84 to 85.5 °C
- Cc1ccc2c(c1)oc1c(C(=O)O)nn(-c3ccc(Cl)cc3Cl)c12 — lower, 228 to 230 °C
- CCCC(C)(C)NC(=S)Nc1cc(Cl)cc(Cl)c1 — lower, 115 to 117 °C
- Clc1ccc2nc(Cl)cn2c1 — lower, 155 to 156 °C
- COc1cc(OC)nc(C(C)c2ccccc2NC(=O)OC(C)(C)C)n1 (configuration not stated) — lower, 119 to 121 °C
- COc1ccc(C(C)=C2SCCCS2)cc1C(=O)O — lower, 130 to 132 °C
- COc1cc2sc(/C=C(\Oc3ccc(C(C)C)cc3)C(=O)O)cc2c(Cl)c1OC — higher, 255 to 256 °C
- N#Cc1c(Cl)cc(Cn2nnc(C(N)=O)c2N)cc1Cl — lower, 238 to 240 °C
- CC(C)c1cc(C#N)cc(C(=O)Nc2ccc(F)cn2)n1 — lower, 194 °C
- CCC1=CC(C)(C)Oc2c(OC)cc(Cc3cnc(N)nc3N)cc21 — higher, 256 to 257 °C
- C#Cc1ccc(-c2c(C)n[nH]c(=O)c2-c2c(F)cc(F)cc2F)cc1 — higher, 252 to 254 °C
- Cc1cn(Cc2cccc(Cl)c2)cc1C(=O)CC(=O)C(=O)O — lower, 148 to 149 °C
- OC(CCCCCCCCOCc1ccccc1)c1ccc(OCc2ccccc2)c(OCc2ccccc2)c1 (configuration not stated) — lower, 46 to 48 °C

From a melting point compilation (Tetko et al.; mined from patent text by program, amines drawn as free bases though some values may be those of a salt)
